The target of one assay is T1, Sec61 (Homo sapiens, UniProt P61619).
T1 construct: endogenous in cells
Kind of assay: cell-based. It is filed as cell-based.

Assay [1] relates to mouse skin inflammation model. Details: method as in PMID 26019221. The conditions noted are these: at its maximum tolerated dose; cited from earlier work.

Several values for one entry are separate records, joined by “and”; a condition that tells them apart may be missing. Equal entries are not always repeated.

T1 sequence (P61619 whole entry): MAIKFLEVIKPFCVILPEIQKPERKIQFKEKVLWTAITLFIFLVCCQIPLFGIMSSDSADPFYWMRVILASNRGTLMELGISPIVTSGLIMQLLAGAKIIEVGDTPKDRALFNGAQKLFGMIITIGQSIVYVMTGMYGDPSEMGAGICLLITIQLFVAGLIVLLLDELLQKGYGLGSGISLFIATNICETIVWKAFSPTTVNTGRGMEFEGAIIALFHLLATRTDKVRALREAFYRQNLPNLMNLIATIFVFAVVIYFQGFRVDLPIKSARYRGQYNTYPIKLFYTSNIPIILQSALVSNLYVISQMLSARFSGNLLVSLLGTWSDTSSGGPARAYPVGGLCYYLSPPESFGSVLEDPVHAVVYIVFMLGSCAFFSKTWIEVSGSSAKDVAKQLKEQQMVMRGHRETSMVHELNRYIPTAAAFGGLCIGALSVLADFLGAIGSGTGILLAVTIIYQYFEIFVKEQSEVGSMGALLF
T1 sequence (P60059 whole entry, further chain): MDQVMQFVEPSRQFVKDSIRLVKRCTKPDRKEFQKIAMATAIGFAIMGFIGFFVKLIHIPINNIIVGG
T1 sequence (P60468 whole entry, further chain): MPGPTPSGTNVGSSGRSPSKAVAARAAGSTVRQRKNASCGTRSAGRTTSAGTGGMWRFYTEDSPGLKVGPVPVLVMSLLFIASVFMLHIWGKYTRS

As for mycolactone A/B, the “potency against VCAM-GLuc relative to pPL-GLuc” value on Sec61 (HEK293T, 24 h) was “equipotent”. Also, the “secreted luciferase activity (% of no-drug control)” value on Sec61 (VCAM signal peptide, Drug nM (log10) 0.18303) is 91.1752% and 96.3566% and 105.08% and 96.2111%; on Sec61 (VCAM signal peptide, Drug nM (log10) 0.660151), 60.5653% and 60.6911% and 72.2191% and 65.68%; on Sec61 (VCAM signal peptide, Drug nM (log10) 1.13727), 69.7373% and 62.7916% and 84.5753% and 63.8152%; on Sec61 (VCAM signal peptide, Drug nM (log10) 1.61439) it was 23.3051% and 17.9704% and 24.3586% and 17.2696%; on Sec61 (VCAM signal peptide, Drug nM (log10) 2.09151), 9.614% and 7.324% and 15.2923% and 7.158%; on Sec61 (VCAM signal peptide, Drug nM (log10) 2.56864), 5.834% and 4.881% and 8.3778% and 4.722%. The “secreted luciferase activity (% of no-drug control)” value is 4.831% and 3.708% and 6.049% and 3.853% at Sec61 (VCAM signal peptide, Drug nM (log10) 3.04576); 3.813% and 3.595% and 4.497% and 3.349% at Sec61 (VCAM signal peptide, Drug nM (log10) 3.52288); 4.399% and 3.701% and 4.702% and 3.31% on Sec61 (VCAM signal peptide, Drug nM (log10) 4); 91.3897% and 90.48% and 98.9457% and 92.5099% at Sec61 (VCAM signal peptide, Drug nM (log10) -0.29409); 96.941% and 113.105% and 106.161% and 90.9819% on Sec61 (pPL signal peptide, Drug nM (log10) 0.18303); 87.4346% and 105.37% and 92.2325% and 88.4507% on Sec61 (pPL signal peptide, Drug nM (log10) 0.660151). For the same substance, the “secreted luciferase activity (% of no-drug control)” value is 90.1482% and 100.766% and 90.4471% and 85.7727% at Sec61 (pPL signal peptide, Drug nM (log10) 1.13727); 34.1743% and 36.4459% and 25.7816% and 32.3021% at Sec61 (pPL signal peptide, Drug nM (log10) 1.61439); 11.7024% and 15.7348% and 12.066% and 11.9677% at Sec61 (pPL signal peptide, Drug nM (log10) 2.09151); 10.1212% and 10.0148% and 7.898% and 9.649% on Sec61 (pPL signal peptide, Drug nM (log10) 2.56864); 5.549% and 7.948% and 6.334% and 6.2294% at Sec61 (pPL signal peptide, Drug nM (log10) 3.04576); 4.849% and 7.368% and 5.461% and 6.2207% at Sec61 (pPL signal peptide, Drug nM (log10) 3.52288). For the same substance, the “secreted luciferase activity (% of no-drug control)” value on Sec61 (pPL signal peptide, Drug nM (log10) 4) is 4.167% and 6.905% and 5.234% and 5.9772%; on Sec61 (pPL signal peptide, Drug nM (log10) -0.29409), 102.214% and 111.849% and 98.9284% and 92.0234%. In addition, in assay [1], the “efficacy in mouse skin inflammation model” value is on record as “modest efficacy”.

The record behind these values is paper PMC10449633 (Nature Chemical Biology, 2023).
